Test results published in PubChem BioAssay AID2060350 (Molecular Pharmacology Branch, DTP, NCI, 2025).

System: PDC 521955-158-R6-J3 spheroids, viability
Test: Anticancer human tumor 521955-158-R6-J3-PDC patient-derived pancreatic carcinoma cell line growth inhibition [TAK]
Details: spheroids with HUVEC and MSC; for IC50: curve of first compound; for viability, T/C: stronger effect = lower value; active = viability on the fitted dose curve at most 10% of control; inactive = the rest
Text: Combinatorial screen of targeted agents with TAK-243 and ipatasertib in multi-cell type tumor spheroids
A high-throughput screen of multi-cell type tumor spheroids was designed to identify active combinations of targeted small molecules and TAK-243 or ipatasertib. Complex spheroids include a stromal component modeled by human endothelial cells (HUVEC) and fibroblasts modeled by human mesenchymal stem cells (MSCs). The concentration ranges selected for each drug and investigational agent were based upon clinically achievable concentrations if the clinical Cmax of the agent was known.
Compounds. The drugs and investigational agents: TAK-243 (785004), ipatasertib (767898), everolimus (733504), selumetinib (741078), bortezomib (756655), trametinib (758246), ixazomib (758254), vemurafenib (761431), dabrafenib (764134), sapanisertib (764658), alpelisib (765974), and copanlisib (816437), were obtained from the National Cancer Institute (NCI) Developmental Therapeutics Program Chemical Repository. The FDA-approved anticancer drug set is available from the NCI Developmental Therapeutics Program. […] The stock solutions were prepared in dimethyl sulfoxide (DMSO, Sigma-Aldrich, St. Louis, MO, cat. D2650) at 800-fold the tested concentration and stored at -70 degrees C prior to their use. All drugs and investigational agents were tested over a range starting from a high concentration at or near the clinical Cmax and decreasing in half-log increments. If the clinical Cmax for an agent had not been determined, the highest concentration tested was 10 microM.
NCI60 Cell Culture. NCI60 cell lines were obtained from the NCI Developmental Therapeutics Program Tumor Repository. For each lot of cells, the Repository performed Applied Biosystems AmpFLSTR Identifiler testing with PCR amplification to confirm consistency with the published Identifier STR profile for each cell line. Cells were kept in continuous culture for no more than 20 passages. The optimal seeding densities for each of the cell lines at each time point assessed were determined prior to performing the concentration response studies. Briefly, the NCI60 human tumor lines were grown as monolayers in RPMI 1640 medium supplemented with 10% FBS and 2 mmol/L L-glutamine.
An additional 2 lines were from the NCI60 cell line panel including melanomas, MALME-3M and SK-MEL-2. Pooled donor human umbilical vein endothelial cells (HUVEC, Lonza, cat. CC-2519) and human mesenchymal stem cells (hMSC, Lonza, cat. PT-2501) were purchased from Lonza (Walkersville, MD).
PDMR cell lines were grown in complete medium (DC medium): Dulbecco's modified Eagle's medium (DMEM)/F12 supplemented with 5% fetal bovine serum (FBS), 2 mM L-glutamine, 100 U/mL penicillin and 100 µg/ml streptomycin, 0.4 µg/ml hydrocortisone, 10 ng/ml epidermal growth factor (EGF) recombinant human protein, 24 µg/mL adenine, and 0.1 mg/mL primocin. During culture from frozen stock vials, PDMR cells were cultured in the same medium containing 10 µM Y-27632 (see Table 3). The PDCs were cultured in complete DMEM/F12 media without 10 microM Y-27632 dihydrochloride for at least two passages prior to the screen. The pooled donor HUVEC and hMSC were cultured in endothelial cell growth medium 2 (PromoCell, Heidelberg, Germany, cat. C-22011) and mesenchymal stem cell growth medium 2 (PromoCell, cat. C-28009), respectively. For all experiments, HUVEC and hMSC were used at passages </=5.
For the pre-screen, cell seeding densities were determined from a titration spanning the range from 5,000 to 313 cells per well. The mct-spheroids including 60% malignant cells, 25% HUVEC and 15% MSC dispensed as a mixture into U-bottom Ultra-Low Attachment 384-well plates (Corning, NY)
High-throughput Drug Combination Screening.
Prior to their inoculation into 384-well plates, malignant cells, HUVEC, and hMSC were removed from T flasks using TrypLE express (Thermo Fisher Scientific, cat. 12605036) and harvested by centrifugation for 5 min at 233 x g. […]
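Also: spheroids exposed to drugs for 7 days before readout.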

CC(=O)Nc1cccc(-n2c(=O)n(C3CC3)c(=O)c3c(Nc4ccc(I)cc4F)n(C)c(=O)c(C)c32)c1 + CC(C)NCC(C(=O)N1CCN(c2ncnc3c2C(C)CC3O)CC1)c1ccc(Cl)cc1
2.58 nM: IC50 (second compound 0.949 µM)
1.64 nM: IC50 (second compound 30 µM)
7.12 nM: IC50 (second compound 0.3 µM)
1.82 nM: IC50 (second compound 3 µM)
inactive: viability, T/C (second compound 0.3 µM, first compound 94.9 pM) 79.6% | viability, T/C (second compound 0.3 µM, first compound 0.0003 µM) 75.7% | viability, T/C (second compound 0.3 µM, first compound 0.000949 µM) 67.9% | viability, T/C (second compound 0.3 µM, first compound 0.003 µM) 58.8% | viability, T/C (second compound 0.3 µM, first compound 0.00949 µM) 46.8% | viability, T/C (second compound 0.3 µM, first compound 0.03 µM) 35.6% | viability, T/C (second compound 0.949 µM, first compound 94.9 pM) 85.6% | viability, T/C (second compound 0.949 µM, first compound 0.0003 µM) 73.7% | viability, T/C (second compound 0.949 µM, first compound 0.000949 µM) 58.5% | viability, T/C (second compound 0.949 µM, first compound 0.003 µM) 49% | viability, T/C (second compound 0.949 µM, first compound 0.00949 µM) 38.3% | viability, T/C (second compound 0.949 µM, first compound 0.03 µM) 25.2% | viability, T/C (second compound 3 µM, first compound 94.9 pM) 78.9% | viability, T/C (second compound 3 µM, first compound 0.0003 µM) 62.1% | viability, T/C (second compound 3 µM, first compound 0.000949 µM) 54.4% | viability, T/C (second compound 3 µM, first compound 0.003 µM) 49% | viability, T/C (second compound 3 µM, first compound 0.00949 µM) 37.6% | viability, T/C (second compound 3 µM, first compound 0.03 µM) 22.2% | viability, T/C (second compound 9.49 µM, first compound 94.9 pM) 77.9% | viability, T/C (second compound 9.49 µM, first compound 0.0003 µM) 62.8% | viability, T/C (second compound 9.49 µM, first compound 0.000949 µM) 53.1% | viability, T/C (second compound 9.49 µM, first compound 0.003 µM) 53.4% | viability, T/C (second compound 9.49 µM, first compound 0.00949 µM) 37.4% | viability, T/C (second compound 9.49 µM, first compound 0.03 µM) 15.2% | viability, T/C (second compound 30 µM, first compound 94.9 pM) 71.9% | viability, T/C (second compound 30 µM, first compound 0.0003 µM) 59.6% | viability, T/C (second compound 30 µM, first compound 0.000949 µM) 55.8% | viability, T/C (second compound 30 µM, first compound 0.003 µM) 47.8% | viability, T/C (second compound 30 µM, first compound 0.00949 µM) 28.5% | viability, T/C (second compound 30 µM, first compound 0.03 µM) 16.1%
2.3 nM: IC50 (second compound 9.49 µM)

CC(C)CC(NC(=O)C(Cc1ccccc1)NC(=O)c1cnccn1)B(O)O (stereo not given) + CC(C)NCC(C(=O)N1CCN(c2ncnc3c2C(C)CC3O)CC1)c1ccc(Cl)cc1
active: viability, T/C (second compound 0.949 µM, first compound 0.01 µM) 8.36% | viability, T/C (second compound 3 µM, first compound 0.01 µM) 6.03% | viability, T/C (second compound 30 µM, first compound 0.01 µM) 6.17%
5.96 nM: IC50 (second compound 0.3 µM)
inactive: viability, T/C (second compound 0.3 µM, first compound 31.6 pM) 94.4% | viability, T/C (second compound 0.3 µM, first compound 0.0001 µM) 95.4% | viability, T/C (second compound 0.3 µM, first compound 0.000316 µM) 94.5% | viability, T/C (second compound 0.3 µM, first compound 0.001 µM) 96.1% | viability, T/C (second compound 0.3 µM, first compound 0.00316 µM) 111% | viability, T/C (second compound 0.3 µM, first compound 0.01 µM) 10.6% | viability, T/C (second compound 0.949 µM, first compound 31.6 pM) 94.3% | viability, T/C (second compound 0.949 µM, first compound 0.0001 µM) 84.2% | viability, T/C (second compound 0.949 µM, first compound 0.000316 µM) 93.5% | viability, T/C (second compound 0.949 µM, first compound 0.001 µM) 103% | viability, T/C (second compound 0.949 µM, first compound 0.00316 µM) 109% | viability, T/C (second compound 3 µM, first compound 31.6 pM) 90.6% | viability, T/C (second compound 3 µM, first compound 0.0001 µM) 90.5% | viability, T/C (second compound 3 µM, first compound 0.000316 µM) 93% | viability, T/C (second compound 3 µM, first compound 0.001 µM) 93.7% | viability, T/C (second compound 3 µM, first compound 0.00316 µM) 113% | viability, T/C (second compound 9.49 µM, first compound 31.6 pM) 94.3% | viability, T/C (second compound 9.49 µM, first compound 0.0001 µM) 89% | viability, T/C (second compound 9.49 µM, first compound 0.000316 µM) 97.6% | viability, T/C (second compound 9.49 µM, first compound 0.001 µM) 96.1% | viability, T/C (second compound 9.49 µM, first compound 0.00316 µM) 104% | viability, T/C (second compound 9.49 µM, first compound 0.01 µM) 13.5% | viability, T/C (second compound 30 µM, first compound 31.6 pM) 93.8% | viability, T/C (second compound 30 µM, first compound 0.0001 µM) 92.1% | viability, T/C (second compound 30 µM, first compound 0.000316 µM) 89.9% | viability, T/C (second compound 30 µM, first compound 0.001 µM) 98.5% | viability, T/C (second compound 30 µM, first compound 0.00316 µM) 98.4%
6.02 nM: IC50 (second compound 9.49 µM)
5.65 nM: IC50 (second compound 30 µM)
5.71 nM: IC50 (second compound 3 µM)
5.82 nM: IC50 (second compound 0.949 µM)
